Values joined by “and” are separate entries in the source; they are usually repeats but may differ in a detail not shown here. Equal entries are not always repeated.
Columns and labels:
[1] = test system: occlusive thrombus in left circumflex coronary artery (LCCA); assay: Anesthetized canine model of coronary thrombosis (anodal current stimulation of the LCCA); type: in vivo, dog
Description: Sixty-six mongrel dogs of either sex weighing between 14 and 26 kg were anesthetized by intravenous administration of pentobarbital sodium solution (30 mg/kg). A supplemental dose of the anesthetic (65 to 130 mg) was administered as required. The dogs were endotracheally intubated and placed on a respirator (Biological Research Apparatus, Comerio-Varese, Italy) with the stroke volume adjusted to 20 ml/kg and a frequency of 12 breaths/minute. Peripheral arterial blood pressure was monitored with a pressure transducer (Micron Instruments, Simi Valley, Calif.) connected to a catheter placed in the right femoral artery. A catheter was inserted into the right femoral vein for withdrawing blood samples and another was inserted into the left jugular vein for administering intravenous fluids. A left thoracotomy was performed in the fifth intercostal space and the heart was suspended in a pericardial cradle. A 2 to 3-cm segment of the left circumflex coronary artery (LCCA) was isolated distal to the first diagonal branch. The small intervening coronary branches over the isolated segment were ligated. The artery was instrumented from proximal to distal with an ultrasonic flow probe, a stimulation electrode, and a Goldblatt clamp. The flow probe was connected to a Doppler flow meter (Crystal Biotech, Hopkinton, Mass.) in order to monitor the mean and the phasic LCCA blood flow velocities. The stimulation electrode and its placement in the LCCA and the methodology to induce an occlusive coronary thrombus are described in detail in Mickelson et al. Circulation, 1990; 81:617-627; Shebuski et al., Circulation, 1990; 82:169-177; and Tschopp et al., Coronary Artery Des., 1993; 4:809-817. Briefly, the needle tip of the electrode was inserted into the LCCA, ensuring its contact with the intraluminal surface of the vessel just under the Goldblatt clamp. The clamp was adjusted to reduce the peak reactive hyperemia following a 10-second period of total occlusion, without affecting the baseline mean LCCA blood flow velocity. Continuous recordings of blood pressure and LCCA blood flow velocity (mean and phasic) were obtained on a multichannel recorder (Gould Inc., Cleveland, Ohio).
Approximately 30 minutes after the preparation of the dogs, the study was continued by the administration of one of the treatments presented in Table 2.
The 0.6×SCa, 0.5×SCa and 0.4×SCa doses in Table 2 represent the reduced doses of the highest dose of SCa tested. Each dog was utilized only once. At 30 minutes, the stimulation electrode was then connected in series with a 12 K Ohms-112 K Ohms variable resistor to the positive terminal of a 9-V battery. The electrical circuit was completed by securing a needle electrode into a subcutaneous site and to the negative terminal of the battery. The anodal current delivered to the tip of the stimulation electrode was monitored and maintained at 250 μA. The number and the frequency of cyclic flow variations (CFV) that preceded the formation of an occlusive thrombus were recorded. CFV were observed as spontaneous shifts in mean and phasic LCCA blood flow velocity, with the sudden return of these variables to baseline. Proper positioning of the electrode in the LCCA was confirmed by visual inspection at the end of the experiment. Each experiment lasted for 180 minutes of anodal current unless the dog died after an occlusive thrombus was formed.

[2] = test system: Dog PRP platelet aggregation; assay: In-Vitro Platelet Aggregation in PRP (ADP-induced); type: cell-based; conditions: Canis lupus familiaris; ADP 50 um final concentration, dog platelet-rich plasma
Description: Healthy male or female dogs were fasted for 8 hours prior to drawing blood; then 30 ml whole blood was collected using a butterfly needle and 30 cc plastic syringe with 3 ml of 0.129 M buffered sodium citrate (3.8%). The syringe was rotated carefully as blood was drawn to mix the citrate. Platelet-rich plasma (PRP) was prepared by centrifugation at 975×g for 3.17 minutes at room temperature allowing the centrifuge to coast to a stop without braking. The PRP was removed from the blood with a plastic pipette and placed in a plastic capped, 50 mL Corning conical sterile centrifuge tube which was held at room temperature. Platelet poor plasma (PPP) was prepared by centrifuging the remaining blood at 2000×g for 15 minutes at room temperature allowing the centrifuge to coast to a stop without braking. The PRP was adjusted with PPP to a count of 2-3×10^8 platelets per mL. 400 uL of the PRP preparation and 50 uL of the compounds solution to be tested or saline were preincubated for 1 minute at 37° C. in an aggregometer (BioData, Horsham, Pa.). 50 uL of adenosine 5′ diphosphate (ADP) (50 um final concentration) was added to the cuvettes and the aggregation was monitored for 1 minute. All compounds are tested in duplicate. Results are calculated as follows: Percent of control=[(maximal OD minus initial OD of compound) divided by (maximal OD minus initial OD of control saline)]×100. […]

[3] = Bioassay for SCa plasma levels; type: in vivo; conditions: steady state, dog plasma, mean ± SEM
Description: SCa plasma levels were determined from the blood samples used for platelet aggregation. Plasma levels of SCa were measured using a modification of a bioassay method previously described in Salyers et al., Throm. Res., 1994, 75:409-417. The bioassay used plasma from treated dogs as the source of inhibitor to be tested in vitro against normal (naive) platelets from donor dogs. Briefly, PRP from non-treated dogs was added to wells containing plasma samples from treated dogs in a 96 well microtiter plate. ADP (20 μM) was added to the platelet suspension in each well to induce aggregation. Optical density at 405 nanometers was measured on all wells simultaneously in a platereader (Thermomax microplate reader, Molecular Devices, Menlo Park, Calif.). The results were quantified by comparison to a standard inhibition curve prepared in plasma using known amounts of SCa.

[4] = test system: collagen-induced platelet aggregation; assay: Ex vivo collagen-induced platelet aggregation in PRP of treated dogs; design: species or system dog; conditions: mean±SEM
Description: Peripheral venous blood was collected into citrated Vacutainer tubes (containing 0.3 ml of 3.8% sodium citrate solution) and platelet-rich plasma (PRP) was obtained by centrifugation (model Technospin R, Sorvall Instruments, DuPont, Wilmington, Del.) the blood at 266×g for 6 minutes at 24° C. Platelet-poor plasma (PPP) was obtained by further centrifugation at 2000×g for 10 minutes at 24° C. Samples were assayed on an aggregometer (model PAP-4, Bio/Data Corporation, Hatboro, Pa.) with PPP as the blank. The aggregations were performed by adding 50 μl of collagen ([…] final concentration) to 450 μl of PRP and measuring aggregation for 3 minutes. Blood samples used in platelet aggregation were collected at the following time periods: before treatment administration (baseline), immediately before anodal stimulation (at 30 minutes), at 60 minutes, then at 1-hour intervals to the end of experimentation. The blood samples at 60, 120 and 180 minutes were averaged (since the three blood samples yielded similar data) to obtain the steady-state platelet inhibition value for all comparisons except for saline and heparin (since no 120-minute sample was taken, 60 and 180 minute samples were used). Results are expressed as percent inhibition and represent steady-state conditions.

[5] = no SCa, ASA 2.8 mg/kg iv bolus, heparin 200 units/kg bolus then 1000 units/hour
[6] = no SCa, ASA 2.8 mg/kg iv bolus, heparin 200 units/kg bolus then 1000 units/hour, mean±SEM, n=6
[7] = no SCa, ASA 2.8 mg/kg iv bolus, heparin 200 units/kg bolus then 1000 units/hourly, mean ± SEM, n=6/group
[8] = no SCa, ASA 2.8 mg/kg iv bolus, heparin 200 units/kg bolus then 1000 units/hourly, n=6/group
[9] = 0.6 × SCa (0.52//0.23 μg/kg/min iv), mean±SEM, n=6
[10] = 0.6 × SCa (0.52//0.23 μg/kg/min iv)
[11] = 1 × SCa (0.87//0.39 μg/kg/min iv)

## CC(=O)Oc1ccccc1C(=O)O [ASA, acetylsalicyclic acid, reference compound]
[1]; no SCa, ASA 2.8 mg/kg iv bolus, 180 minutes of anodal current, n=6
  occurrence of thrombosis (occlusive thrombus) in dogs: did occur before the completion of the 180 minutes of current in all of the dogs
[1]; [5]
  effectiveness in the thrombosis model: not effective
[1]; [6]
  time to zero flow: 64 ± 7 min
[1]; [7]
  Mean CFV/Minute (×100): 6 ± 2 CFV/Minute (×100)
[1]; [8]
  Number of Dogs with CFV: 6/6

## C#C[C@H](CC(=O)OCC)NC(=O)CCC(=O)Nc1ccc(C(=N)N)cc1 [Example 1, Ethyl 3S-[[4-[[4-(aminoiminomethyl)phenyl]-amino]-1,4-dioxobutyl]amino]-4-pentynoate]
[2]
  IC50: 4.6 µM

## C#C[C@H](CC(=O)O)NC(=O)CCC(=O)Nc1ccc(C(=N)N)cc1 [Example 2]
[1]; 0.5 × SCa (0.425//0.20 μg/kg/min iv) alone or with ASA and/or heparin, 180 minutes of anodal current, n=6/group
  dogs with occlusive thrombus / LCCA thrombosis: 4 of 6
[1]; 0.5 × SCa (0.425//0.20 μg/kg/min iv) alone or with ASA and/or heparin, mean ± SEM, n=6/group
  Mean CFV/Minute (×100): 5 ± 1 CFV/Minute (×100)
[1]; 0.5 × SCa (0.425//0.20 μg/kg/min iv) alone or with ASA and/or heparin, n=6/group
  Number of Dogs with CFV: 6/6
[1]; 0.5 × SCa (0.425//0.20 μg/kg/min iv), mean±SEM, n=6
  time to zero flow: 130 ± 22 min
[1]; [9]
  Mean CFV/Minute (×100): 3 ± 1 CFV/Minute (×100)
  time to zero flow: 158 ± 15 min
[1]; 0.6 × SCa (0.52//0.23 μg/kg/min iv), n=6
  Number of Dogs with CFV: 4/6
[1]; 1 × SCa (0.87//0.39 μg/kg/min iv), 180 minutes of anodal current, n=6
  occurrence of thrombosis (occlusive thrombus) in dogs: did not occur in any of the dogs
[1]; 1 × SCa (0.87//0.39 μg/kg/min iv), during anodal stimulation of the LCCA, mean ± SEM, n=6
  Mean CFV/Minute (×100): 0.7 ± 0.7 CFV/Minute (×100)
[1]; 1 × SCa (0.87//0.39 μg/kg/min iv), n=6, listed as SCa
  Number of Dogs with CFV: 1 of 6 and 1/6
[1]; 1 × SCa (0.87//0.39 μg/kg/min iv, loading 15 min // maintenance), 180 min = end of protocol with no occlusion, mean±SEM, n=6
  time to zero flow: 180 ± 0 min
[3]; 0.5 × SCa (0.425//0.20 μg/kg/min iv)
  Plasma Level of SCa: 35 ± 8 ng/mL
[3]; [10]
  Plasma Level of SCa: 48 ± 7 ng/mL
[3]; [11]
  Plasma Level of SCa: 57 ± 4 ng/mL
[4]; 0.5 × SCa (0.425//0.20 μg/kg/min iv) alone or with ASA 2.8 mg/kg bolus and/or heparin 200 units/kg + 1000 units/hour
  steady-state inhibition of platelet aggregation (Percent Inhibition): 70±4%
[4]; [10]
  steady-state inhibition of platelet aggregation (Percent Inhibition): 83±3%
[4]; [11]
  steady-state inhibition of platelet aggregation (Percent Inhibition): 92±5%
[2]
  IC50: 0.07 µM

## Heparin [reference compound]
[1]; [5]
  effectiveness in the thrombosis model: not effective
[1]; [6]
  time to zero flow: 114 ± 16 min
[1]; [7]
  Mean CFV/Minute (×100): 5 ± 1 CFV/Minute (×100)
[1]; [8]
  Number of Dogs with CFV: 6/6
[4]; [5]
  steady-state inhibition of platelet aggregation: 13±2%

Reference: US20030054029A1, “IIB/IIIA ANTAGONISTS CO-ADMINISTERED WITH ASPIRIN” (priority 1997, published 2003)
